Earlier results as cited in patent publication US7407949B2, “Benzamide derivatives as oxytocin agonists and vasopressin antagonists” (priority 2003, dated 2008).

Biological target: T1, V1a vasopressin receptor (Homo sapiens, UniProt P37288)
T1 construct: host or cells: patients (in vivo clinical study)
Conditions: dysmenorrhea patients, compared to placebo

T1 sequence (P37288 whole entry): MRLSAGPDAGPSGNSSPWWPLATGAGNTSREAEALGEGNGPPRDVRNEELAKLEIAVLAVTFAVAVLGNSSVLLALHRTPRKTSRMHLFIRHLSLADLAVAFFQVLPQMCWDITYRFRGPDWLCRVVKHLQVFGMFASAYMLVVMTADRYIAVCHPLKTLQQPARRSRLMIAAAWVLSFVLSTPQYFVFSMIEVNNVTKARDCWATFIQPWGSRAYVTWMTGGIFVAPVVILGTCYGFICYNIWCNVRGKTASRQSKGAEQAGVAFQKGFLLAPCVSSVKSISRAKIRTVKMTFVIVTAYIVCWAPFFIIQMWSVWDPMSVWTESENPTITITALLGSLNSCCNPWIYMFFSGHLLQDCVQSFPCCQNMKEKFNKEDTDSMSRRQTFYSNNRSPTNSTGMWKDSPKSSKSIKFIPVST

## COc1ccc(S(=O)(=O)N2c3ccc(Cl)cc3[C@](O)(c3ccccc3Cl)[C@@H]2C(=O)N2CCC[C@H]2C(N)=O)cc1OC [SR49059]
  amount of additional pain-killer taken: dose-related decrease in the amount of additional pain-killer taken
  pain: dose-related decrease in pain
